Measured values published in patent publication US20130323767A1, “Method to Identify Liver Toxicity Using Metabolite Profiles” (STRAND LIFE SCIENCES PRIVATE LIMITED, priority 2011, published 2013).

What was measured:
Type in all cases: biochemical
Conditions in all cases: experimental data or published literature, primary rat hepatocyte cultures
[1] = test system: Carnitine palmitoyl transferase; assay: Observed % change in carnitine palmitoyl transferase
Method: (§1) Liver specific cells or cell-lines are treated with known doses of drugs or toxicants. Upon treatment, the cells are harvested and cellular extracts prepared. In these extracts, the drug-induced alterations in metabolite profiles can be obtained by any technique such as biochemical assays, mass spectrometry, NMR or any other technique for obtaining metabolite profile known in the art. These are then compared with values obtained in the absence of the drug. Metabolites with significant alterations from their untreated values are identified. This generates what is referred to as altered metabolites 1.
(§2) All metabolite profiles upon drug treatment are obtained experimentally from primary rat hepatocyte cultures. The drug-induced metabolite profiles are then compared with those from untreated cells to obtain altered metabolites 1. The CMA-ES procedure described above is applied wherein, an initial population of 40 randomly generated parameter sets with fitness criteria of 10^−8 is used and the set of likely altered parameters are estimated for the following drugs. Further, a set of biochemical assays are carried out wherever possible to experimentally measure the level of parameter alteration.
(§3) For the validation of this disclosure, biochemical enzymatic assays are used. However, methods such as NMR, or mass spectrometry can also be used for metabolite data collection. […]

fof1ATPase = assay: Observed % change in concentration of fof1ATPase
Method: as §1, §2, §3

[2] = test system: Glutathione reductase (cytosolic); assay: Observed % change in glutathione reductase (cytosolic)
Method: as §1, §2, §3

Influx of fatty acids = assay: Observed % change in influx of fatty acids, drug-treated hepatocytes
Method: as §1, §2, §3

k Ca2+/Na+ = assay: Observed % change in k Ca2+/Na+
[3] = test system: Glutathione peroxidase (mitochondrial); assay: Observed % change in glutathione peroxidase (mitochondrial)
Method: as §1, §2, §3

[4] = test system: Glutathione reductase (mitochondrial); assay: Observed % change in glutathione reductase (mitochondrial)
Method: as §1, §2, §3

[5] = test system: Gamma glutamyl cysteine synthetase; assay: Observed % change in gamma glutamyl cysteine synthetase
Method: as §1, §2, §3

k proton leak = assay: Observed % change in k proton leak
Method: as §1, §2, §3

[6] = test system: Glutathione peroxidase (cytosolic); assay: Observed % change in glutathione peroxidase (cytosolic)
Method: as §1, §2, §3

Row | Structure (SMILES) | Carnitine palmitoyl transferase, observed % change [1] [%] | Concentration_of_fof1ATPase, observed % change (fof1ATPase) [%] | Glutathione reductase (cytosolic), observed % change [2] [%] | Influx of fatty acids, observed % change (Influx of fatty acids) [%] | k Ca2+/Na+, observed % change (k Ca2+/Na+) [%] | Glutathione peroxidase (mitochondrial), observed % change [3] [%] | Glutathione reductase (mitochondrial), observed % change [4] [%] | Gamma glutamyl cysteine synthetase, observed % change [5] [%] | k proton leak, observed % change (k proton leak) [%] | Glutathione peroxidase (cytosolic), observed % change [6] [%]
1 | O=C(O)Cc1ccccc1Nc1c(Cl)cccc1Cl [Diclofenac] | 0.00 | −22.00 | 360.00 | −9.00 | 900.00 | 21.00 | 20.00 | 0.00 | 400.00 | 7.00
2 | CCCC(CCC)C(=O)O [Valproic acid] | −70.00 | −1.00 | 40.00 | −36.00 | 900.00 | −44.00 | −60.00 | −53.00 | 400.00 | −22.00
